Key:
[1] = test system: adenosine aggregates in ADA deficient LCLs; experiment: Aggregation assay (Proteostat, FACS) on ADA deficient LCLs; assay type: cell-based, human; conditions: patient derived lymphoblastoids, adenosine, 19 concentrations from 50 μM to 0.003 μM
Description: 24 hours after seeding in full medium cells were washed with medium without serum and placed in medium without serum. Following 72 hours of incubation with or without Adenosine (A9251 SIGMA) (200 ug/ml), cells were washed with PBS and stained for adenosine aggregates with Proteostat dye (ENZ-51023-KP002). Proteostat concentration was 1:3000 of diluted stock. Following 15 minutes' incubation, cells were washed with PBS and mean fluorescence was measured with FACS.
Cells were treated with adenosine alone or with adenosine with compounds. Compound activity was tested in 19 concentrations in range from 50 uM to 0.003 uM.
Readouts: Proteostat Fluorescence intensity was measured with FACS at 2 excitation wavelengths: 488 nm and 550 nm. Emission wavelength was 600 nm.
24 hours after seeding in 96 round bottom plates in full medium cells were washed once with medium without serum and placed in medium without serum. Following 72 hours of incubation with or without Adenosine (200 ug/ml) and with or without purpurin (2 uM), cells were washed once with PBS and stained for adenosine aggregates with Proteostat dye (Enzo Life Sciences). Proteostat concentration was 1:4000 of diluted stock. Following 15 minutes incubation, cells were washed with PBS and mean flow cytometry was preformed using Stratedigm S1000EXi and the CellCapTure software (Stratedigm, San Jose, Calif.). Analyses were performed using FlowJo software (TreeStar, version 10).
For quantification of intracellular adenosine aggregates by FACS analyses, 100,000 cells were seeded in 96 well plates in full medium. After 24 hours, cells were centrifuged, washed once and added with serum free medium with or without Adenosine (200 μg/ml). After incubation of 72 hours cells were washed with PBS and stained for adenosine aggregates with Proteostat dye. Following 15 minutes incubation, cells were washed with PBS and mean fluorescence was measured with FACS. Mean cell fluorescence of every cell line was normalized to its signal without adenosine and data is presented as percentage of aggregates.

[2] = target: estrogen receptor (Homo sapiens, UniProt P03372); conditions: general description; cited from earlier work
[3] = test system: aah1Δapt1Δ strain; experiment: Yeast growth assay of adenine salvage mutant with adenine feeding; assay type: cell-based, Saccharomyces cerevisiae
Description: (§1) Strains were grown over night at 30° C. in SD medium without adenine. For spotting assays, strains were diluted to 6.25*10^7 cells/mL and were then 5-fold serially diluted and spotted on SD media with the indicated concentrations of adenine or TA (Sigma-Aldrich). Plates were incubated at 30° C. for 2 days. […] For OD600 measurements, strains were diluted to OD600 0.01, 200 μL of cells were platted on 96 wells plates and incubated at 30° C. for 25 hours with continuous shaking. OD600 was measured using Tecan™ SPARK 10M plate reader.
For the percentage of growth analysis (FIG. 10B and FIG. 13A), OD600 was measured when cells reached log phase. The percentage of growth represents the growth with TA compared to the growth without TA.

[4] = target: CYP2C9 (Homo sapiens, UniProt P11712); conditions: general description; cited from earlier work
[5] = test system: RB857 (PAH-1 mutant) and N2 (WT) worms; experiment: C. elegans model for PKU; assay type: in vivo, Caenorhabditis elegans; conditions: 100 mM phenylalanine in minimal media, Baicalein added
Description: (§2) Wild-type N2, RB857 and NL2099 worms were obtained from the Caenorhabditis Genetics Center. RNAi clones was obtained from the Ahringer RNAi library as previously described [Fisher A L, et al., J. Biol. Chem. 283: 9127-9135(2008)]. Worms were grown on NGM media without peptone and the metabolites were added into a boiling media. Baicalein and EGCG were added to a media after cooled down to 45 degrees.
To study PKU in C. elegans model, a strain was used with mutation in the PAH-1 gene (RB857)]. […] Next, the effect of one of the previously identified hits i.e. baicalein was examined on the development of worms. The life cycle of C. elegans is comprised of the embryonic stage, four larval stages (L1-L4) and adulthood. The end of each larval stage is marked with a molt, during which a new, stage-specific cuticle is synthesized and the old one is shed.

[6] = test system: adenine fibrils; experiment: ThT assay of adenine self-assembly inhibition in vitro; conditions: for amyloids staining (ThT, end point): adenine 8 mg/ml in PBS with inhibitor
Description: Adenine was dissolved at 90° C. in PBS to a final concentration of 8 mg/ml and mixed with the indicated inhibitor, at the indicated concentrations, or with PBS as a control, followed by addition of ThT in PBS. ThT emission data at 480 nm (excitation at 450 nm) were measured at the end point.
Adenine was dissolved to a final concentration of 8 mg/ml at 90° C. in PBS. The solution was plated on a 96-well black plate and mixed with the inhibitor baicalein at the stated concentration, and with 20 μm ThT (final concentration). Fluorescence (excitation at 450 nm, emission at 480 nm) was recorded over time using a Tecan™ Infinite® 200 PRO plate reader. Data processing was performed using the OriginLab software.
To further examine if the compounds specifically target the adenosine amyloid-like structures. the compounds were tested using adenine in-vitro aggregation assay. Adenine was self-assembled with and without the inhibitors and stained with the amyloids dye, Thioflavin T (ThT). […] More specifically. Adenosine (30 mg/mL) and guanosine (3 mg/ml) were dissolved in PBS at 90° C., followed by the addition of ThT at final concentration of 20 μM. ThT emission data at 480 nm (excitation at 450 nm) was measured over time. TEM images show elongated adenosine fibrils (10 mg/mL) and guanosine fibrils (1 mg/mL) (FIGS. 34A and 34B, respectively). ThT fluorescence assay of adenosine and guanosine assemblies, are shown by FIGS. 34C, and 34D respectively.

[7] = test system: lipoxygenases; conditions: general description; cited from earlier work
[8] = test system: GABAA receptor; conditions: general description; cited from earlier work
[9] = test system: cys4Δ strain; experiment: Yeast growth assay of cys4Δ mutant with homocysteine; assay type: cell-based, Saccharomyces cerevisiae; conditions: compared to the wild-type strain, 20, 40, 80 mg/L
Description: FIG. 27E: WT and cys4Δ strains diluted to OD600 0.01 were grown in SD media containing 13 mg/L cysteine and 80 mg/L homocysteine in the under the indicated conditions. 0.3 mM TA was added to the samples at different OD600. The percentage of growth represents the growth the indicated condition compared to the growth of WT without TA. *P<0.05 (Student's t-test).
Homocystinuria results from cystathionine beta synthase (CBS) deficiency, leading to excess of Hcy. A knockout mutation in CYS4, the highly-conserved functional yeast ortholog of the human cystathionine beta synthase (CBS) known to be essential for Hcy salvage, was therefore generated. Due to the contribution of this enzyme to cysteine biosynthesis, it was first shown that its absence confers cysteine dependence (FIG. 27A). […] To examine whether the observed toxicity was associated with the in vivo formation of amyloid-like assemblies, the cells were stained with the amyloid-specific fluorescent dye ProteoStat which allows to detect intracellular amyloid fibrils. […] Next, to further establish the amyloid-like nature of the aggregates, the fibrillation-modifying polyphenolic compound tannic acid (TA) was used (FIG. 27E).

[10] = test system: phenylalanine assemblies; conditions: reference [4]; cited from earlier work
[11] = test system: aro3Δ mutant; experiment: Yeast growth assay of aro3Δ mutant with tyrosine feeding; assay type: cell-based, Saccharomyces cerevisiae; conditions: 4a.a SD medium with tyrosine
Description: as §1
The focus was put on a strain with a deletion of the ARO3 gene in which a significant decrease in cellular growth was observed upon tyrosine feeding (see FIG. 21). The inventors aimed to determine whether the toxic effect was influenced by different levels of tyrosine. Thus, the cellular growth of wild-type and the aro3Δ mutant was examined by serial dilutions on selective plates that were supplemented with different concentrations of tyrosine (FIG. 21A). In addition, cellular growth was also examined by measuring the turbidity of the medium upon addition of the indicated concentration of tyrosine (FIG. 21B). […] Thus, cell growth is affected by tyrosine levels in a dose-dependent manner which further supports the notion that the toxicity in the aro3Δ mutant results from the presence of tyrosine.
In order to examine the effect of EGCG on cell growth, the aro3Δ mutant was spotted on 4a.a SD plates that contained tyrosine alone or tyrosine with different concentrations of EGCG. […] Thus, the lag phase in the presence of EGCG was nearly the same as cells unexposed to tyrosine, indicating the potent ability of EGCG to eliminate the tyrosine sensitivity of the aro3Δ mutant. […] Next, the inventors aimed to gain additional insights into the effect of EGCG on the amyloid-like fibrils formed by the accumulation of tyrosine in the aro3Δ mutant cells. For that purpose, cells were stained with the amyloid-specific dye ProteoStat®, and FACS was applied to detect tyrosine aggregates. […] (FIG. 25).

[12] = test system: fah-1 RNAi treated worms; experiment: C. elegans model for Tyrosinemia (fah-1 RNAi); assay type: in vivo, Caenorhabditis elegans; conditions: tyrosine added to fah-1 silenced worms
Description: as §2
Mutations in different enzymes that are involved in the tyrosine degradation pathway are responsible for different types of Tyrosinemia. The tyrosine degradation pathway in mammals and C. elegans in conserved and the most severe is type I Tyrosinemia, which is caused by mutations affecting the last enzyme in the pathway, fumarylacetoacetate hydrolase (FAH). To study Tyrosinemia in C. elegans model, an RNAi was used that specifically silences the fumarylacetoacetate hydrolase (fah-1), as was previously reported (K10C4.2). RNAi directed against fah-1 causes severe phenotype of reduced size, impaired fertility and reduction of total number of viable worms (FIG. 32).

estrogen receptor, sequence (P03372 whole entry, species assumed): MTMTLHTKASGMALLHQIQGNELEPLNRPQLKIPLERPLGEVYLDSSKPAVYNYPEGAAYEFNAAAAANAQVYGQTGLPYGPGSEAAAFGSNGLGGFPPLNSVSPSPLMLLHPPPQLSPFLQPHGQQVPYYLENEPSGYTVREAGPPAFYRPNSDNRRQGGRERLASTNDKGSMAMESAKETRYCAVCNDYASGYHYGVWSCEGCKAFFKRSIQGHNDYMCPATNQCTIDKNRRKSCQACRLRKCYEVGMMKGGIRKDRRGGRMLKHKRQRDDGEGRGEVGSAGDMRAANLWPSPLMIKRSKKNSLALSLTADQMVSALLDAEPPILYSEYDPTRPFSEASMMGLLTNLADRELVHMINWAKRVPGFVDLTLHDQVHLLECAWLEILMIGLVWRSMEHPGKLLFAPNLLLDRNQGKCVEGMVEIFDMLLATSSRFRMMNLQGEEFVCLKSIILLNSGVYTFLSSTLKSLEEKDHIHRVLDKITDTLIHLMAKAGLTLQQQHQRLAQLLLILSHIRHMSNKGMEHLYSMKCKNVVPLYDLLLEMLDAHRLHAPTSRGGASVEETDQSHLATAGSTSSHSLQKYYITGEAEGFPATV
CYP2C9, sequence (P11712 whole entry): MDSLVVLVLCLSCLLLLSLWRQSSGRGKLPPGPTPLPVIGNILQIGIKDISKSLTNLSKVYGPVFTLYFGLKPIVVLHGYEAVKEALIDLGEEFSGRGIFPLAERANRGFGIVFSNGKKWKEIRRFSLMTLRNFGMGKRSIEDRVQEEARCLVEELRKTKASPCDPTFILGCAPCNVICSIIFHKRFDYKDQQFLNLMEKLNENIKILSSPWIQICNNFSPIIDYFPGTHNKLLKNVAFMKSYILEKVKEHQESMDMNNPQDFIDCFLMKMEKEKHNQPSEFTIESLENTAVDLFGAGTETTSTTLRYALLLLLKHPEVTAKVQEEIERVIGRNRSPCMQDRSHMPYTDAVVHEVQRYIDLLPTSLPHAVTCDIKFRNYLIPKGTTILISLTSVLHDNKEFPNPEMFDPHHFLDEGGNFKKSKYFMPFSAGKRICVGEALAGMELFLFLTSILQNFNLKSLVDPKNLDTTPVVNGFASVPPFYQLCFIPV

## O=C1c2ccccc2C(=O)c2c1ccc(O)c2O [Alizarin, 1,2-Dihydroxyanthracene-9,10-dione]
[1]
  formation of adenosine aggregates (aggregation level, Proteostat staining): significantly reduce the aggregation level
[1]; listed as alizarin
  formation of adenosine aggregates (aggregation level, Proteostat staining): inhibited the formation of these aggregates

## O=c1cc(-c2ccccc2)oc2cc(O)c(O)c(O)c12 [Baicalein, 5,6,7-Trihydroxy-2-phenyl-chromen-4-one]
[2]
  activity at the estrogen receptor: antagonist
[3]; 2 mg/L adenine, baicalein 2.5, 5, 10 μM
  yeast cell growth: significant effect on yeast cell growth
[4]
  inhibition of CYP2C9: inhibitor
[5]; N2 and RB857
  total number of worms: beneficial effect on both strains
[5]; RB857 and WT
  development of worms (reaching adulthood): dramatic beneficial effect on both strains
[1]
  formation of adenosine aggregates (aggregation level, Proteostat staining): significantly reduce the aggregation level
[1]; listed as baicalein
  formation of adenosine aggregates (aggregation level, Proteostat staining): inhibited the formation of these aggregates
[6]; 8 mg/ml adenine, baicalein 5, 10, 100, 500 μM
  adenine self-assembly in vitro (ThT fluorescence over time): dose-dependent inhibition of adenine self-assembly in vitro
[6]
  amyloids staining (ThT, end point): significantly reduced the amyloids staining
[7]
  inhibition of certain types of lipoxygenases: inhibit
[8]
  modulation of the benzodiazepine site and/or a non-benzodiazepine site of the GABAA receptor: positive allosteric modulator

## N[C@@H](CCS)C(=O)O [Hcy, homocysteine]
[9]
  growth of CYS4 mutant with Hcy in the growth medium: sensitivity

## O=C1c2ccc(O)c(O)c2C(=O)c2c(O)ccc(O)c21 [Quinalizarin, 1,2,5,8-Tetrahydroxyanthracene-9,10-dione]
[1]
  formation of adenosine aggregates (aggregation level, Proteostat staining): significantly reduce the aggregation level
[1]; listed as quinalizarin
  formation of adenosine aggregates (aggregation level, Proteostat staining): inhibited the formation of these aggregates
[6]
  amyloids staining (ThT, end point): significantly reduced the amyloids staining

## Nc1ncnc2nc[nH]c12 [adenine, Adenine]
[3]; SD medium, adenine up to 40 mg/L
  cell growth with increasing adenine levels in the medium: decreased cell growth in a dose-dependent manner

## O=C(O)[C@H]1O[C@@H](Oc2cc3oc(-c4ccccc4)cc(=O)c3c(O)c2O)[C@H](O)[C@@H](O)[C@@H]1O [baicalin, reference compound]
[8]
  modulation of the benzodiazepine site and/or a non-benzodiazepine site of the GABAA receptor: positive allosteric modulator

## C[C@H]1c2cccc(O)c2C(=O)C2=C(O)[C@]3(O)C(=O)C(C(N)=O)=C(O)[C@@H](N(C)C)[C@@H]3[C@@H](O)[C@@H]21 [doxycycline]
[10]
  phenylalanine aggregation and cytotoxicity of the assemblies in vitro: counteract

## N[C@@H](Cc1ccc(O)cc1)C(=O)O [tyrosine]
[11]
  growth of aro3Δ mutant with increasing tyrosine concentration: increase of growth inhibition
[12]
  size, fertility and total number of viable worms: severe decline in all the observed phenotypes

Source: patent US20210381022A1, “INTEGRATED DRUG DISCOVERY PLATFORM FOR INBORN ERROR OF METABOLISM DISORDERS” (RAMOT AT TEL-AVIV UNIVERSITY LTD., priority 2018, published 2021)
